From US20060069104A1, “Neurotrophic factor production accelerator” (priority 2002, published 2006)

System: GDNF mRNA in cultured astroglia
Experiment: Quantification of GDNF mRNA by RT-PCR in cultured astroglia
Type: cell-based, Wistar rat
Details: cultured rat astroglia
Method: Astroglia was prepared from the brain of a 1 to 2-day-old Wistar rat. It was inoculated to a 75 cm^2 culture flask, and incubated in Eagle's minimum essential medium supplemented with 10% fetal bovine serum for 10 to 14 days. Then, it was shaken overnight at 250 rpm, and microglia and oligodendroglia on the astroglia monolayer were removed. Astroglia was dispersed in 0.25% trypsin (1:400, Invitrogen), and inoculated to a 6-well plate. It was further incubated for 7 to 10 days, and confluent cells were used for the experiment.
The cultured astroglia prepared by the above-mentioned method was incubated in serum-free Eagle's minimum essential medium for 48 hours. The total RNA was prepared by AGPC (Acid Guanidinium-Phenol-Chloroform) method (Chomczynski P., and Sacchi N., Anal. Biochem. 162, 156-159 (1987)). […] The fluorescence intensity of the PCR product was imaged by Fluoro Imager (Molecular Dynamics), and fluorescence bands were quantified by NIH Image. The amount of the PCR product of the eurotrophic factor was standardized using the amount of the β-actin PCR product of cDNA, and the amount of relative mRNA was determined. The activity of N-(4-acetyl-1-piperazinyl)-p-fluorobenzamide monohydrate (hereinafter to be also referred to as a test drug.) on neurotrophic factor production was evaluated by a Tukey-Kramer assay. […]

For `CC(=O)N1CCN(NC(=O)c2ccc(F)cc2)CC1.O` [test drug, N-(4-acetyl-1-piperazinyl)-p-fluorobenzamide monohydrate], the “amount of GDNF mRNA (relative mRNA amount standardized using the amount of the β-actin PCR product)” value (serum-free medium, from 3 hours after the treatment with the test drug, RT-PCR, Tukey-Kramer) was “significant increase” and the “time of peak of GDNF mRNA amount after treatment” value (time-course after treatment with the test drug (FIG. 1)) was 6 h.
